Assay results as given in the supplement of paper PMC10307832.

What was measured:
Assay in all cases: relative viability (nuclei count vs DMSO), 5 days (fraction); higher = more cells survive
RU-SKI 43 + Trametinib = compound: CC[C@@H](C)CNCC(=O)N1CCC2=C([C@@H]1COC3=CC=CC(=C3)C)C=CS2 [RU-SKI 43] + CC(=O)Nc1cccc(-n2c(=O)n(C3CC3)c(=O)c3c(Nc4ccc(I)cc4F)n(C)c(=O)c(C)c32)c1 [Trametinib] (partner 0.02 µM)
In short: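 Relative viability was taken as the ratio of nuclei in treated wells to nuclei in vehicle wells. Lung cancer cell lines in 1536-well plates received compounds by pin tool one day after seeding, either one drug alone or a fixed anchor-drug dose plus five library-drug doses (not always all listed) in √10 steps. Nuclei were counted on 4× images after 5 days of treatment, and values are medians of duplicate plates.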

RU-SKI 43 = compound: CC[C@@H](C)CNCC(=O)N1CCC2=C([C@@H]1COC3=CC=CC(=C3)C)C=CS2 [RU-SKI 43]
In short: (§1)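 Five library-drug doses spaced by √10 were pinned onto vehicle-anchored 1536-well plates of lung cancer cell lines that had been kept overnight at 37 °C. Cells went 5 days without medium change, then were fixed, permeabilised and Hoechst-stained together, imaged at 4× and counted by MetaXpress. Viability is the ratio of treated-well to vehicle-well nuclei, taken as a median over plates. Plates required control CV below 25% and at least one doubling.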

MK-8033 = compound: Cn1cc(-c2cnc3ccc4ccc(CS(=O)(=O)NCc5ccccn5)cc4c(=O)c3c2)cn1 [MK-8033]
In short: as §1

Irinotecan = compound: CCc1c2c(nc3ccc(OC(=O)N4CCC(N5CCCCC5)CC4)cc13)-c1cc3c(c(=O)n1C2)COC(=O)[C@]3(O)CC [Irinotecan]
In short: as §1

Cell Line	relative viability (RU-SKI 43 + Trametinib; first compound 0.1 µM)	relative viability (RU-SKI 43 + Trametinib; first compound 0.3162 µM)	relative viability (RU-SKI 43 + Trametinib; first compound 1 µM)	relative viability (RU-SKI 43 + Trametinib; first compound 3.162 µM)	relative viability (RU-SKI 43 + Trametinib; first compound 10 µM)	relative viability (RU-SKI 43; 0.1 µM)	relative viability (RU-SKI 43; 0.3162 µM)	relative viability (RU-SKI 43; 1 µM)	relative viability (RU-SKI 43; 3.162 µM)	relative viability (RU-SKI 43; 10 µM)	relative viability (MK-8033; 0.02 µM)	relative viability (MK-8033; 0.06325 µM)	relative viability (MK-8033; 0.2 µM)	relative viability (MK-8033; 0.6325 µM)	relative viability (MK-8033; 2 µM)	relative viability (Irinotecan; 0.6325 µM)	relative viability (Irinotecan; 2 µM)	relative viability (Irinotecan; 6.325 µM)	relative viability (Irinotecan; 20 µM)
NCI-H460	0.224	0.2	0.141	0.197	0.0732	1.04	1.06	1.03	1.01	0.967	0.992	0.945	0.96	1.06	1.03	0.74	0.556	0.142	0.0536
COR-L 105	0.404	0.334	0.41	0.414	0.397	1.01	0.853	0.963	1.07	0.899	1.04	0.809	0.854	0.94	0.826	0.803	0.903	0.603	0.339
BEN	0.967	1.12	1.06	1.11	1.01	1.05	0.987	1.25	0.991	1.05	1.04	0.913	0.963	0.934	0.939	0.735	0.73	0.345	0.338
NCI-H1993	0.474	0.514	0.615	0.579	0.694	0.927	0.899	1.06	0.924	0.925	0.925	0.736	0.663	0.736	0.727	0.596	0.889	0.667	0.628
NCI-H838	0.491	0.645	0.471	0.529	0.505	0.97	0.965	1.05	1	0.981	0.954	0.923	0.919	0.952	0.953	1.05	1.02	0.526	0.316
NCI-H1755	0.751	0.866	0.839	0.833	0.768	1.03	1.03	1.1	1.1	1	0.982	1.02	0.945	0.973	0.974	0.966	0.984	0.433	0.408
NCI-H1666	0.831	0.804	0.803	0.845	0.68	0.953	0.954	0.967	1.04	0.865	0.984	0.94	0.945	0.947	0.96	0.889	0.763	0.573	0.459
NCI-H2085	0.506	0.493	0.494	0.653	0.499	0.981	1.01	1.02	0.975	0.927	0.931	0.987	0.959	0.942	0.984	0.824	0.909	0.75	0.529
COR-L23	0.611	0.598	0.672	0.577	0.423	0.943	1.14	1.16	1.16	0.921	1.01	1.02	0.947	1.06	0.981	0.412	0.419	0.215	0.144
NCI-H647	0.445	0.57	0.472	0.521	0.439	1.04	0.987	1.13	1.07	0.996	0.919	0.943	0.89	0.935	0.874	0.866	0.815	0.191	0.142
NCI-H1793	0.439	0.386	0.435	0.473	0.479	0.986	0.939	1	0.894	0.755	0.935		0.761	0.792	0.8		0.905	0.463	0.227
LCLC-97TM1	0.193	0.246	0.256	0.187	0.148	1.13	0.972	1.05	0.973	0.838	1.05	0.927	0.795	0.999	0.975	0.39	0.454	0.173	0.167
HOP-62	0.358	0.428	0.374	0.405	0.314	1.05	0.986	1.11	1.09	1.09	1	0.976	0.98	0.989	0.973	0.558	0.714	0.194	0.2
NCI-H520	0.79	1.02	0.654	0.794	0.45	1.07	1.08	1.09	1.06	0.938	1.06	0.98	1.01	1.03	0.928	0.898	0.726	0.365	0.325
NCI-H1734	0.656	0.758	0.724	0.695	0.622	0.961	1.05	1.03	1.07	0.88	1.1	0.845	0.944	0.993	0.985		0.77	0.195	0.181
SW 900	0.818	0.76	1.03	1.02	0.594	0.716	0.93	1.02	0.683	0.62	0.884	0.684	0.685	1.03	0.789	0.51	0.787	0.497	0.432
